# Assay results from patent US7544698B2, “Indoles and benzoimidazoles as modulators of the histamine H4 receptor” (Janssen Pharmaceutica, N.V., priority 2006, dated 2009).
# Where a name gives a salt, the structure may show the parent alone.
# Target: T1, human histamine H4 receptor (Homo sapiens, UniProt Q9H3N8)
# T1 construct: expressed in transfected cells; host or cells: SK-N-MC cells or COS7 cells, transiently transfected with pH4R; cell membranes
# Assay: Binding Assay on Recombinant Human Histamine H4 Receptor (3H-histamine competition, membranes of transfected SK-N-MC or COS7 cells)
# Details: competition with 3H-histamine (5 nM ligand, KD 5 nM), Cheng-Prusoff; mean of results; > = solubility limit or highest concentration tested
# Procedure: Binding Assay on Recombinant Human Histamine H4 Receptor
# SK-N-MC cells or COS7 cells were transiently transfected with pH4R and grown in 150 cm^2 tissue culture dishes. Cells were washed with saline solution, scraped with a cell scraper and collected by centrifugation (1000 rpm, 5 min). Cell membranes were prepared by homogenization of the cell pellet in 20 mM Tris-HCl with a polytron tissue homogenizer for 10 sec at high speed. Homogenate was centrifuged at 1000 rpm for 5 min at 4° C. The supernatant was then collected and centrifuged at 20,000×g for 25 min at 4° C. The final pellet was resuspended in 50 mM Tris-HCl. […] Incubation occurred at room temperature for 45 min. Membranes were harvested by rapid filtration over Whatman GF/C filters and washed 4 times with ice-cold 50 mM Tris HCl. Filters were then dried, mixed with scintillant and counted for radioactivity. SK-N-MC or COS7 cells expressing human histamine H4 receptor were used to measure the affinity of binding of other compounds and their ability to displace ^3H-ligand binding by incubating the above-described reaction in the presence of various concentrations of inhibitor or compound to be tested.
row,Structure (SMILES),Ki [nM]
1,"O=C(c1nc2cc(Cl)ccc2[nH]1)N1C[C@H]2CCCN[C@H]2C1 (relative stereo) [Example 7, cis-(5-Chloro-1H-benzoimidazol-2-yl)-(octahydro-pyrrolo[3,4-b]pyridin-6-yl)-methanone]",20
2,"O=C(c1cc2cc(Cl)ccc2[nH]1)N1C[C@H]2CCCN[C@H]2C1 (relative stereo) [Example 10, cis-(5-Chloro-1H-indol-2-yl)-(octahydro-pyrrolo[3,4-b]pyridin-6-yl)-methanone]",8
3,"O=C(c1cc2cc(F)ccc2[nH]1)N1C[C@H]2CCCN[C@H]2C1 (relative stereo) [Example 13, cis-(5-Fluoro-1H-indol-2-yl)-(octahydro-pyrrolo[3,4-b]pyridin-6-yl)-methanone hydrochloride salt]",28
4,"O=C(c1cc2c(F)cc(F)cc2[nH]1)N1C[C@H]2CCCN[C@H]2C1 (relative stereo) [Example 15, cis-(4,6-Difluoro-1H-indol-2-yl)-(octahydro-pyrrolo[3,4-b]pyridin-6-yl)-methanone hydrochloride salt]",220
5,"CN1CCC[C@@H]2CN(C(=O)c3cc4ccccc4[nH]3)C[C@@H]21 (relative stereo) [Example 27, cis-(1H-Indol-2-yl)-(1-methyl-octahydro-pyrrolo[3,4-b]pyridin-6-yl)-methanone]",560
6,"Cc1ccc2[nH]c(C(=O)N3C[C@H]4CCCN[C@H]4C3)cc2c1 (relative stereo) [Example 29, cis-(5-Methyl-1H-indol-2-yl)-(octahydro-pyrrolo[3,4-b]pyridin-6-yl)-methanone hydrochloride salt]",41
7,"O=C(c1cc2ccccc2[nH]1)N1C[C@@H]2C[C@H]1CN2 [Example 1, (S,S)-(2,5-Diaza-bicyclo[2.2.1]hept-2-yl)-(1H-indol-2-yl)-methanone hydrochloride salt]",1110
8,"CN1C[C@@H]2C[C@H]1CN2C(=O)c1cc2ccccc2[nH]1 [Example 2, (S,S)-(1H-Indol-2-yl)-(5-methyl-2,5-diaza-bicyclo[2.2.1]hept-2-yl)-methanone]",3200
9,"CNC1CCN(C(=O)c2cc3ccccc3[nH]2)C1 (centres unmarked) [Example 3, (1H-Indol-2-yl)-(3-methylamino-pyrrolidin-1-yl)-methanone trifluoroacetic acid salt]",430
10,"CN[C@@H]1CCN(C(=O)c2cc3ccccc3[nH]2)C1 [Example 4, (R)-(1H-Indol-2-yl)-(3-methylamino-pyrrolidin-1-yl)-methanone hydrochloride salt]",160
11,"CN[C@@H]1CCN(C(=O)c2cc3cc(Cl)ccc3[nH]2)C1 [Example 8, (R)-(5-Chloro-1H-indol-2-yl)-(3-methylamino-pyrrolidin-1-yl)-methanone]",53
12,"CN[C@H]1CCN(C(=O)c2cc3cc(Cl)ccc3[nH]2)C1 [Example 9, (S)-(5-Chloro-1H-indol-2-yl)-(3-methylamino-pyrrolidin-1-yl)-methanone]",540
13,"O=C(c1cc2cc(Cl)ccc2[nH]1)N1C[C@H]2CCCN[C@H]2C1 [Example 11, (R,R)-(5-Chloro-1H-indol-2-yl)-(octahydro-pyrrolo[3,4-b]pyridin-6-yl)-methanone hydrochloride salt]",27
14,"CN[C@H]1CCN(C(=O)c2cc3cc(F)ccc3[nH]2)C1 [Example 16, (S)-(5-Fluoro-1H-indol-2-yl)-(3-methylamino-pyrrolidin-1-yl)-methanone]",680
15,"CN[C@H]1CCN(C(=O)c2cc3cc(C)ccc3[nH]2)C1 [Example 20, (S)-(3-Methylamino-pyrrolidin-1-yl)-(5-methyl-1H-indol-2-yl)-methanone]",> 10000
16,"CN[C@@H]1CCN(C(=O)c2cc3cc(C)ccc3[nH]2)C1 [Example 21, (R)-(3-Methylamino-pyrrolidin-1-yl)-(5-methyl-1H-indol-2-yl)-methanone]",280
17,"CN[C@H]1CCN(C(=O)c2cc3c(F)cc(F)cc3[nH]2)C1 [Example 22, (S)-(4,6-Difluoro-1H-indol-2-yl)-(3-methylamino-pyrrolidin-1-yl)-methanone]",> 5000
18,"CN[C@@H]1CCN(C(=O)c2cc3c(F)cc(F)cc3[nH]2)C1 [Example 23, (R)-(4,6-Difluoro-1H-indol-2-yl)-(3-methylamino-pyrrolidin-1-yl)-methanone]",680
19,"NC1CCN(C(=O)c2cc3cc(Cl)ccc3[nH]2)C1 (centres unmarked) [Example 24, (3-Amino-pyrrolidin-1-yl)-(5-chloro-1H-indol-2-yl)-methanone hydrochloride salt]",190
20,"CN(C)C1CCN(C(=O)c2cc3ccccc3[nH]2)C1 (centres unmarked) [Example 26, (3-Dimethylamino-pyrrolidin-1-yl)-(1H-indol-2-yl)-methanone]",9000
21,"CN(C)C1CCN(C(=O)c2nc3ccccc3[nH]2)C1 (centres unmarked) [Example 31, (1H-Benzoimidazol-2-yl)-(3-dimethylamino-pyrrolidin-1-yl)-methanone]",8200

# The next lines start with the values.
row,Ki [nM],Structure (SMILES)
1,40,"O=C(c1cc2ccccc2[nH]1)N1C[C@H]2CCCN[C@H]2C1 (relative stereo) [Example 5, cis-(1H-Indol-2-yl)-(octahydro-pyrrolo[3,4-b]pyridin-6-yl)-methanone trifluoroacetic acid salt]"
2,> 10000,"O=C(c1cc2cccc([N+](=O)[O-])c2[nH]1)N1C[C@H]2CCCN[C@H]2C1 (relative stereo) [Example 14, cis-(7-Nitro-1H-indol-2-yl)-(octahydro-pyrrolo[3,4-b]pyridin-6-yl)-methanone hydrochloride salt]"
3,240,"CN1CCC[C@@H]2CN(C(=O)c3cc4cc(Cl)ccc4[nH]3)C[C@@H]21 (relative stereo) [Example 28, cis-(5-Chloro-1H-indol-2-yl)-(1-methyl-octahydro-pyrrolo[3,4-b]pyridin-6-yl)-methanone]"
4,> 10000,"O=C(c1cc2ccccc2[nH]1)N1C[C@@H]2CCCN[C@@H]2C1 [Example 6, (S,S)-(1H-Indol-2-yl)-(octahydro-pyrrolo[3,4-b]pyridin-6-yl)-methanone trifluoroacetic acid salt]"
5,> 10000,"O=C(c1cc2cc(Cl)ccc2[nH]1)N1C[C@@H]2CCCN[C@@H]2C1 [Example 12, (S,S)-(5-Chloro-1H-indol-2-yl)-(octahydro-pyrrolo[3,4-b]pyridin-6-yl)-methanone hydrochloride salt]"
6,180,"O=C(c1cc2cc(Cl)ccc2[nH]1)N1C[C@@H]2CCCN[C@@H]2C1 [Example 12A, (S,S)-(5-Chloro-1H-indol-2-yl)-(octahydro-pyrrolo[3,4-b]pyridin-6-yl)-methanone]"
7,38,"CN[C@@H]1CCN(C(=O)c2cc3cc(F)ccc3[nH]2)C1 [Example 17, (R)-(5-Fluoro-1H-indol-2-yl)-(3-methylamino-pyrrolidin-1-yl)-methanone]"
8,> 10000,"CN[C@H]1CCN(C(=O)c2cc3cccc(C)c3[nH]2)C1 [Example 18, (S)-(3-Methylamino-pyrrolidin-1-yl)-(7-methyl-1H-indol-2-yl)-methanone]"
9,150,"CN[C@@H]1CCN(C(=O)c2cc3cccc(C)c3[nH]2)C1 [Example 19, (R)-(3-Methylamino-pyrrolidin-1-yl)-(7-methyl-1H-indol-2-yl)-methanone]"
10,1160,"CN(C)C1CCN(C(=O)c2cc3cc(Cl)ccc3[nH]2)C1 (centres unmarked) [Example 25, (5-Chloro-1H-indol-2-yl)-(3-dimethylamino-pyrrolidin-1-yl)-methanone]"
11,2000,"CNC1CCN(C(=O)c2nc3ccccc3[nH]2)C1 (centres unmarked) [Example 30, (1H-Benzoimidazol-2-yl)-(3-methylamino-pyrrolidin-1-yl)-methanone hydrochloride salt]"
